Experimental data: paper PMC11672551, “Cyclic Ruthenium-Peptide Prodrugs Penetrate the Blood–Brain Barrier and Attack Glioblastoma upon Light Activation in Orthotopic Zebrafish Tumor Models” (ACS Central Science, 2024)
Read-outs that look alike come from different tables or passages of the source.

Legend:
U87MG cells [1] = assay: Intracellular ROS generation, CellROX Deep Red, flow cytometry; assay type: cell-based, human; details: 15 μM, 24 h, green light 515 nm, 13.1 J cm–2, normoxia, n = 2
Description: Figure 3 Light activation mechanism in cells treated with Ru-peptide conjugates. (a) Emission intensity of cells treated with Ru-p(HH), Ru-p(MH), or Ru-p(MM) (15 μM, 24 h) and irradiated with green light (520 nm, 13.1 J cm^–2) for different times: 0–1200 s, as determined by flow cytometry using a PC5.5 filter (ex/em = 488/650 ± 50 nm). (b) Intracellular ROS generation assay in normoxic (N) and hypoxic (H) U87MG cells according to FACS analysis using nonselective ROS probe CellROX Deep Red Reagent, after treatment with Ru-p(HH), Ru-p(MH), Ru-p(MM), cisplatin, Rose Bengal, or [Ru(Ph2phen)2Cl2] (labeled as Ru-Cl2) (15 μM, 24 h), in the dark and after light irradiation (515 nm, 13.1 J cm^–2). tBHP (250 μM, 1 h) was used as a positive control for ROS generation. Error bars: SEM, n = 2. (c) Slopes of the UV–vis absorption of AMDA (for ^1O2, blue bars) or emission intensity of DHE (for O2^•–, red bars) vs irradiation time (see Figures S26–S28) after being incubated with Ru-p(HH), Ru-p(MH), Ru-p(MM), Ru-Cl2, or Rose Bengal (20 μM) and irradiated with green light in Opti-MEM solution. (d) Percentage of alive (−/−), early apoptotic (−/+), late apoptotic (+/+) and necrotic (+/−) U87MG cells costained with Apopxin Deep Red Indicator and Nuclear Green DCS1 as quantified by flow cytometry, after treatment with Ru-p(HH), Ru-p(MH), Ru-p(MM), cisplatin or Rose Bengal in the dark (D) and after light irradiation (L, DLI = 24 h, 515 nm, 13.1 J cm^–2); drug concentration: 20 μM, DLI = 24 h).
Second, CellROX Deep Red, a nonspecific molecular probe for ROS formation, was used to quantify the photodynamic behaviors by each of the three complexes in U87MG cells,.[22] […]
The generation of ROS (reactive oxygen species) in U87MG cells was measured using a ROS deep red fluorescence indicator (Abcam, ab186029). […] The levels of intracellular ROS were then determined using a CytoFLEX flow cytometer using the APC-A (638 nm excitation, 660/10 nm emission) channel. […]

[2] = reference value; cited from earlier work
Source text: Table 1 Photochemical Data for Ru-Peptide Conjugates | column: complex

[3] = not given; remark: listed apart in the source
[4] = not given; remark: listed apart in the source
U87MG cells [5] = assay: 2D cytotoxicity assay, SRB end point, dark vs green light; assay type: cell-based, human; details: normoxia (21% O2); for EC50: SRB at 96 h
Description: To test the in vitro phototoxicity of the three complexes toward 2D monolayer U87MG cells, a cell viability assay was undertaken as follows: the cells were seeded at t = 0, treated at t = 24 h, irradiated with green light (520 nm, 13.1 J cm^–2) at t = 48 h without refreshing the medium (drug-to-light interval = 24 h), further incubated in the dark for 48 h, and counted at t = 96 h with a sulforhodamine B (SRB) cell quantification end point assay.[45] Half-maximal effective concentrations (EC50 in μM), compared to untreated control, and photoindex (PI) values, defined as EC50,dark/ EC50,light, were calculated to characterize the toxicity and light activation of each Ru-peptide conjugate. […] However, a much stronger discrepancy appeared in the 2D toxicity data in hypoxic conditions (Table 2, Figure S22b). The phototherapeutic properties of Ru-p(HH) in the green light group were the poorest, leading to a PI of only 1.3. […] Ru-p(MH) stood somewhere between these values with a PI of 1.9 under hypoxia. […] The loss of activity of Ru-p(HH) under hypoxia is consistent with the hypothesis of a PDT pathway, while Ru-p(MM) keeping appreciable phototoxicity under hypoxia better fits the hypothesis of a PACT cell-killing mechanism.
U87MG cells (6000) were seeded in 96-well plates (Sarstedt, 83.3924), and each well contained 100 μL of Opti-MEM (Gibco complete medium 11058-021, supplemented with 2.5% v/v fetal calf serum (FCS), 0.2% v/v penicillin/streptomycin (P/S), and 1% v/v glutamine). They were then placed either in a normoxic (21% O2) or hypoxic (1.0% O2) incubator; 24 h later, different concentrations of Ru-p(HH), Ru-p(MH), or Ru-p(MM) dissolved in Opti-MEM (100 μL) were added to the wells in triplicate. For each complex, one dark and one light plate were involved. Each plate was further incubated in the dark for 24 h (DLI). After that, one plate was irradiated with green light (520 nm) for 20 min at 37 °C for normoxia (dose = 13.1 J cm^–2) or 30 min for hypoxia (dose = 13.0 J cm^–2), while the other plate was kept in the dark. The cells were further incubated for another 2 days in normoxic or hypoxic conditions, respectively. Finally, 100 μL of cold trichloroacetic acid (10% w/v) was added to each well to fix the cells, and all plates were then transferred to a 4 °C refrigerator for 48 h before an SRB cell quantification end point assay was performed.[45] All experiments were conducted in biologically independent triplicate.
Hypoxic cell models in vitro: all cells were incubated and passaged in a dark hypoxic incubator (1% O2) for at least 2 weeks before all hypoxia studies. Adding chemicals to the cells had to be performed in air; however, the cell-growing medium was kept in the hypoxia incubator for at least 2 days before the addition to hypoxic cells, and all hypoxic light irradiations were performed inside the hypoxic incubator set at 1.0% O2.

Row | Compound | intracellular ROS production, normoxia (U87MG cells [1]) | λem [nm] | λmax [3] [nm] | also measured
1 | O=C([O-])c1c(Cl)c(Cl)c(Cl)c(Cl)c1-c1c2cc(I)c(=O)c(I)c-2oc2c(I)c([O-])c(I)cc12.[Na+].[Na+] [Rose Bengal] | high amount of ROS | – | – | –
2 | [Cl][Ru][Cl].c1ccc(-c2ccccn2)nc1.c1ccc(-c2ccccn2)nc1.c1ccc(-c2ccccn2)nc1 [[Ru(bpy)3]Cl2] | – | – | – | ΦΔ ref, singlet oxygen quantum yield of the reference [2]: 73%
3 | N.N.[Cl][Pt][Cl] [cisplatin] | barely showed any ROS formation | – | – | –
4 | Ac-HRGDH-NH2 | – | 658 | 500 | –
5 | Ac-MRGDH-NH2 | – | 700 | 465 | relative emission intensity compared to Ru-p(HH) [4]: 2%
6 | Ac-MRGDM-NH2 | – | 700 | 400 | relative emission intensity compared to Ru-p(HH) [4]: 0.2%
7 | [Ru(Ph2phen)2Cl2] | able to generate ROS in cells | – | – | PI, photoindex EC50,dark/EC50,light (U87MG cells [5]): 7.2; EC50 (U87MG cells [5]; 520 nm, 10.9 mW cm–2, 13.1 J cm–2, 20 min, DLI 24 h, n = 3, read-out: EC50, green light): 200 nM; EC50 (U87MG cells [5]; light dose 0, 24 h treatment, no wash, n = 3, read-out: EC50, dark): 1430 nM
